# Assays:
# [1] = test system: Human umbilical vein endothelial cells (HUVECs); assay: Tube formation assay of HUVEC in Matrigel; format: cell-based; settings: 50 μM ticlopidine alone; total tube area per well relative to control (100)
# Experimental: The tube formation assay was performed as follows: 48-well plates were coated with 0.2 ml of Matrigel (BD Bioscience, Bedford, Mass., USA) and incubated at 37° C. for 1 hr. 4˜6×10^4 HUVECs resuspended in 0.4 ml of M199 medium were added to each well. Ticlopidine (Sigma Chemical Co., USA) and Ginkgo biloba extract (Hwa Il Pharmaceutical Co., LTD, Korea), a standardized extract that contained 24% flavonoid glycosides and 6% terpenoids, were added to the Matrigel. Final concentration of ticlopidine and Ginkgo biloba extract were 25 μM and 5 μg/ml, respectively. As a control, the procedure was repeated without added ticlopidine and Ginkgo biloba extract. Comparative runs were also conducted by the same procedure using ticlopidine alone (comparative run 1) or only with Ginkgo biloba extract (comparative run 2). The extent of tube formation was determined by measuring the total tube area per well relative to that of the control using image analysis program Image-Pro Pluso (Media Cybernetics, USA).
# [2] = test system: formation of blood vessels in Matrigel; assay: Matrigel plug assay (hemoglobin in bFGF/heparin Matrigel implanted in mice); format: in vivo, C57BL/6 female mice; settings: 0.65 mg/mouse orally twice per day for four days; control = 100
# Experimental: 0.4 ml portion of Matrigel each mixed with 50 ng/ml of basic fibroblast growth factor (bFGF) and 50 units of heparin were implanted by subcutaneous injection in 5-week-old C57BL/6 female mice, and a mixture of 0.65 mg ticlopidine and 0.4 mg Ginkgo biloba extract was orally administrated to each mouse twice per day for four days. Then each mouse was sacrificed and the Matrigel was excised. For comparison, the procedure was repeated using ticlopidine or Ginkgo biloba extract alone. The formation of blood vessels in Matrigel was tested by measuring the amount of hemoglobin (Hb) in the Matrigel using the Drabkin reagent kit (Sigma Chemical Co., St. Louise, Mich., USA) which contained standards of known amounts of Hb.
compound,measurement,setting,value
"Clc1ccccc1CN1CCc2sccc2C1 [Ticlopidine, 5-[(2-chlorophenyl)methyl]-4,5,6,7-tetrahydrothieno[3,2-C]pyridine]",Total Tube Area %,[1],91%
same,Hemoglobin (%),[2],95%

# — patent US20030165586A1, “Anti-angiogenic composition comprising ticlopidine and gingko biloba extract” (priority 2003, published 2003)
